# Laboratory results published in publication PMC12439480, “Dimeric CCK2R radiotheranostic tracers synergize with mTOR inhibition for enhanced tumor therapy” (Theranostics, 2025).
# Numbered stars: 1 amine (or outer) side, 2 acyl side, 3 side chain; on linkers, the order of the positions; unused ones are H or OH. Square brackets hold non-standard residues; d marks the D form. Peptide text beside a SMILES is read from it. * marks the point of attachment. DOTA = O=C(O)CN1CCN(CC(=O)O)CCN(CC(=O)*)CCN(CC(=O)O)CC1; d(γGlu) = O=C(O)[C@@H](CCC(=O)[*:2])N[*:1]; 1Nal = N[C@@H](Cc1cccc2ccccc12)C(=O)O; NMeNle = CCCC[C@H](NC)C(=O)O; PEG4 = NCCOCCOCCOCCOCCC(=O)O
# Legend:
# in vivo [1] = experiment: in vivo; parameters: species or system BALB/c nude mice; conditions: female, BALB/c nude, mouse, iv, total radioactivity
# Procedure: For the micro-positron emission tomography/computed tomography (microPET/CT) imaging study, BALB/c nude mice bearing AR42J tumors (detailed in Supplementary Methods Section S3: Mouse Models) were intravenously injected with 3.7 MBq of [^68Ga]Ga-DOTA-CCK2R-dimer (≈ 120 pmol) or [^68Ga]Ga-DOTA-CCK-66 (≈ 210 pmol) (dissolved in 200 μL of saline; n = 3/group), and microPET/CT imaging was performed at 30, 60, and 120 min post-injection. The mice were anesthetized via inhalation of an isoflurane mixture approximately 5 min before each PET/CT acquisition began. To confirm tumor-specific radiopharmaceutical uptake, blocking experiments were conducted at the 1-h time point of imaging by coinjecting the mice with the radiopharmaceutical and a 400-fold excess of the lead compound.
# (§1) All animal studies were approved by the Ethics Committee of Fudan University
# (§2) Shanghai Cancer Center (No. FUSCC-IACUC- S2023- 0003). Five-week-old female
# (§3) BALB/c nude mice were purchased from Shanghai SLAC Laboratory Animal
# (§4) Company. To establish cell-derived xenograft (CDX) models, 1 × 10⁶ AR42J cells
# (§5) (100 μL) were subcutaneously inoculated into the right shoulder of each mouse. […]
# in vivo [2] = experiment: in vivo; parameters: species or system BALB/c nude mice; conditions: mouse; for tissue to tissue ratio at 0.5 h / tissue to tissue ratio at 1 h / tissue to tissue ratio at 2 h: female, BALB/c nude, iv, 3.7 MBq, total radioactivity
# Procedure: To complement the imaging studies, biodistribution experiments were performed. AR42J tumor-bearing mice were intravenously injected with 3.7 MBq of [^68Ga]Ga-DOTA-CCK2R-dimer (≈ 120 pmol) or [^68Ga]Ga-DOTA-CCK-66 (≈ 210 pmol) (dissolved in 200 μL of saline; n = 3/group). The mice were sacrificed at 30, 60, and 120 min post-injection, and the tissues of interest were excised, weighed, and analyzed for radioactivity using a γ-counter. For blocking studies, a 400-fold excess of the lead compound was co-administered, and the mice were sacrificed at 1 h post-injection.
# as §1, §2, §3, §4, §5
# [3] = parameters: species or system KM mice; conditions: mouse, in vivo, iv
# Procedure: To evaluate the clearance rates of [^68Ga]Ga-DOTA-CCK2R-dimer and [^68Ga]Ga-DOTA-CCK-66 from the blood, a pharmacokinetic study was conducted in male KM mice (4-6 weeks old, 18-20 g, n = 5/group). Each mouse received 3.7 MBq of radiotracer via tail vein injection, corresponding to approximately 120 pmol of [^68Ga]Ga-DOTA-CCK2R-dimer or 210 pmol of [^68Ga]Ga-DOTA-CCK-66. Blood samples were collected from the tail vein into preweighed capillary tubes at 1, 3, 5, 10, 15, 30, 60, 90, 120, and 150 min post-injection. The radioactivity of the blood samples was measured using a γ-counter, and the percent of injected dose per gram of tissue (%ID/g) was calculated. Additionally, we assessed the in vivo stability of [^177Lu]Lu-DOTA-CCK2R-dimer. Mice were intravenously injected with 7.4 MBq (≈ 240 pmol) of [^177Lu]Lu-DOTA-CCK2R-dimer (dissolved in 200 μL of saline; n = 3/group). Urine samples were collected at 1, 4, and 24 hours post-injection, then diluted, filtered through a 0.22 μm membrane, and analyzed by radio-HPLC.
# All animal studies were approved by the Ethics Committee of Fudan University […]
# Shanghai Cancer Center (No. FUSCC-IACUC- S2023- 0003). […]
# Pharmacokinetics in Normal Mice
# F or the pharmacokinetics study, […] male KM mice (4 - 6 weeks old, weighing 18 - 20 g) were administered either [68Ga]Ga-D O TA -CCK2R-dimer or [68Ga]Ga-D O TA -CCK- 66 (3.7 MBq per mouse, n = 5/group) via tail vein injection.
# Blood samples were collected from the tail vein using pre-weighed capillary tubes at […]
# Radioactivity levels were measured using a gamma counter, with decay correction applied based on the injection time. The percentage of injected dose per gram of tissue (%ID/g) was calculated for each time point. […]
# [4] = Tumor-to-Large intestine ratio (T/B)
# [5] = Tumor-to-Small intestine ratio (T/B)
smiles,measurement,setting,value
"CCCC[C@@H](C(=O)N[C@@H](CC(=O)O)C(=O)N[C@@H](Cc1cccc2ccccc12)C(N)=O)N(C)C(=O)[C@H](Cc1c[nH]c2ccccc12)NC(=O)CCOCCOCCOCCOCCNC(=O)CC[C@@H](NC(=O)CN1CCN(CC(=O)O)CCN(CC(=O)O)CCN(CC(=O)O)CC1)C(=O)O [[68Ga]Ga-DOTA-CCK-66, metal not drawn, reference compound] ({DOTA-d(γGlu)-PEG4}-W[NMeNle]D[1Nal]-NH2)",tissue uptake at 0.5 h,in vivo [1]; 3.7 MBq,16 ± 2.18 %ID/g
same,tissue uptake at 1 h,in vivo [1]; 3.7 MBq,19.5 ± 2.95 %ID/g
same,tissue uptake at 2 h,in vivo [1]; 3.7 MBq,19.6 ± 3.35 %ID/g
same,tissue uptake at 1 h,in vivo [1],7.9 ± 1.35 %ID/g
same,tissue to tissue ratio at 0.5 h,in vivo [2]; Tumor-to-Bladder ratio (T/B),1.95 ± 0.96
same,tissue to tissue ratio at 1 h,in vivo [2]; Tumor-to-Bladder ratio (T/B),4.41 ± 1.16
same,tissue to tissue ratio at 2 h,in vivo [2]; Tumor-to-Bladder ratio (T/B),7.5 ± 2.91
same,tissue to tissue ratio at 0.5 h,in vivo [2]; Tumor-to-Blood ratio (T/B),2.48 ± 0.27
same,tissue to tissue ratio at 1 h,in vivo [2]; Tumor-to-Blood ratio (T/B),6.36 ± 1.3
same,tissue to tissue ratio at 2 h,in vivo [2]; Tumor-to-Blood ratio (T/B),18.1 ± 14.9
same,tissue to tissue ratio at 0.5 h,in vivo [2]; Tumor-to-Bone ratio (T/B),29.9 ± 14.1
same,tissue to tissue ratio at 1 h,in vivo [2]; Tumor-to-Bone ratio (T/B),34.9 ± 29.4
same,tissue to tissue ratio at 2 h,in vivo [2]; Tumor-to-Bone ratio (T/B),98 ± 19.9
same,tissue to tissue ratio at 0.5 h,in vivo [2]; Tumor-to-Brain ratio (T/B),72.8 ± 22.6
same,tissue to tissue ratio at 1 h,in vivo [2]; Tumor-to-Brain ratio (T/B),91.4 ± 5.94
same,tissue to tissue ratio at 2 h,in vivo [2]; Tumor-to-Brain ratio (T/B),141 ± 66.3
same,tissue to tissue ratio at 0.5 h,in vivo [2]; Tumor-to-Heart ratio (T/B),10.9 ± 1.72
same,tissue to tissue ratio at 1 h,in vivo [2]; Tumor-to-Heart ratio (T/B),8.93 ± 4.2
same,tissue to tissue ratio at 2 h,in vivo [2]; Tumor-to-Heart ratio (T/B),33.2 ± 30.2
same,tissue to tissue ratio at 0.5 h,in vivo [2]; Tumor-to-Kidney ratio (T/B),1.8 ± 0.2
same,tissue to tissue ratio at 1 h,in vivo [2]; Tumor-to-Kidney ratio (T/B),1.1 ± 0.47
same,tissue to tissue ratio at 2 h,in vivo [2]; Tumor-to-Kidney ratio (T/B),1.67 ± 0.79
same,tissue to tissue ratio at 0.5 h,in vivo [2]; [4],5.91 ± 1.81
same,tissue to tissue ratio at 1 h,in vivo [2]; [4],13.3 ± 6.96
same,tissue to tissue ratio at 2 h,in vivo [2]; [4],26.2 ± 5.5
same,tissue to tissue ratio at 0.5 h,in vivo [2]; Tumor-to-Liver ratio (T/B),4.12 ± 0.63
same,tissue to tissue ratio at 1 h,in vivo [2]; Tumor-to-Liver ratio (T/B),4.3 ± 0.38
same,tissue to tissue ratio at 2 h,in vivo [2]; Tumor-to-Liver ratio (T/B),13.2 ± 7.75
same,tissue to tissue ratio at 0.5 h,in vivo [2]; Tumor-to-Lung ratio (T/B),3.22 ± 0.56
same,tissue to tissue ratio at 1 h,in vivo [2]; Tumor-to-Lung ratio (T/B),7.32 ± 5.81
same,tissue to tissue ratio at 2 h,in vivo [2]; Tumor-to-Lung ratio (T/B),11.7 ± 2.81
same,tissue to tissue ratio at 0.5 h,in vivo [2]; Tumor-to-Muscle ratio (T/M),6.69 ± 2.78
same,tissue to tissue ratio at 1 h,in vivo [2]; Tumor-to-Muscle ratio (T/M),10.2 ± 1.41
same,tissue to tissue ratio at 2 h,in vivo [2]; Tumor-to-Muscle ratio (T/M),15.2 ± 6.94
same,tissue to tissue ratio at 0.5 h,in vivo [2]; [5],5.83 ± 2.57
same,tissue to tissue ratio at 1 h,in vivo [2]; [5],7.43 ± 1.49
same,tissue to tissue ratio at 2 h,in vivo [2]; [5],25.7 ± 17.9
same,tissue to tissue ratio at 0.5 h,in vivo [2]; Tumor-to-Spleen ratio (T/B),4.46 ± 1.21
same,tissue to tissue ratio at 1 h,in vivo [2]; Tumor-to-Spleen ratio (T/B),7 ± 2.74
same,tissue to tissue ratio at 2 h,in vivo [2]; Tumor-to-Spleen ratio (T/B),24.9 ± 10.9
same,tissue to tissue ratio at 0.5 h,in vivo [2]; Tumor-to-Stomach ratio (T/B),4.5 ± 1.83
same,tissue to tissue ratio at 1 h,in vivo [2]; Tumor-to-Stomach ratio (T/B),5.06 ± 2.32
same,tissue to tissue ratio at 2 h,in vivo [2]; Tumor-to-Stomach ratio (T/B),6 ± 1.93
same,tissue uptake at 0.5 h,in vivo [2]; Bladder uptake,1.9 ± 1.13 %ID/g
same,tissue uptake at 1 h,in vivo [2]; Bladder uptake,1.59 ± 0.47 %ID/g
same,tissue uptake at 2 h,in vivo [2]; Bladder uptake,1.37 ± 0.43 %ID/g
same,tissue uptake at 0.5 h,in vivo [2]; Blood uptake,1.22 ± 0.15 %ID/g
same,tissue uptake at 2 h,in vivo [2]; Blood uptake,0.69 ± 0.3 %ID/g
same,tissue uptake at 0.5 h,in vivo [2]; Bone uptake,0.12 ± 0.05 %ID/g
same,tissue uptake at 2 h,in vivo [2]; Bone uptake,0.1 ± 0.04 %ID/g
same,tissue uptake at 0.5 h,in vivo [2]; Brain uptake,0.03 ± 0.01 %ID/g
same,tissue uptake at 2 h,in vivo [2]; Brain uptake,0.07 ± 0.01 %ID/g
same,tissue uptake at 0.5 h,in vivo [2]; Heart uptake,0.28 ± 0.04 %ID/g
same,tissue uptake at 2 h,in vivo [2]; Heart uptake,0.48 ± 0.31 %ID/g
same,tissue uptake at 0.5 h,in vivo [2]; Kidney uptake,1.68 ± 0.19 %ID/g
same,tissue uptake at 1 h,in vivo [2]; Kidney uptake,7.52 ± 1.95 %ID/g
same,tissue uptake at 2 h,in vivo [2]; Kidney uptake,6.4 ± 2.54 %ID/g
same,tissue uptake at 0.5 h,in vivo [2]; Large intestine uptake,0.55 ± 0.19 %ID/g
same,tissue uptake at 2 h,in vivo [2]; Large intestine uptake,0.37 ± 0.06 %ID/g
same,tissue uptake at 0.5 h,in vivo [2]; Liver uptake,0.74 ± 0.1 %ID/g
same,tissue uptake at 1 h,in vivo [2]; Liver uptake,1.57 ± 0.22 %ID/g
same,tissue uptake at 2 h,in vivo [2]; Liver uptake,0.54 ± 0.17 %ID/g
same,tissue uptake at 0.5 h,in vivo [2]; Lung uptake,0.95 ± 0.14 %ID/g
same,tissue uptake at 1 h,in vivo [2]; Lung uptake,1.25 ± 0.6 %ID/g
same,tissue uptake at 2 h,in vivo [2]; Lung uptake,0.87 ± 0.31 %ID/g
same,tissue uptake at 0.5 h,in vivo [2]; Muscle uptake,0.52 ± 0.27 %ID/g
same,tissue uptake at 2 h,in vivo [2]; Muscle uptake,0.72 ± 0.36 %ID/g
same,tissue uptake at 0.5 h,in vivo [2]; Small intestine uptake,0.57 ± 0.21 %ID/g
same,tissue uptake at 2 h,in vivo [2]; Small intestine uptake,0.5 ± 0.27 %ID/g
same,tissue uptake at 0.5 h,in vivo [2]; Spleen uptake,0.71 ± 0.2 %ID/g
same,tissue uptake at 2 h,in vivo [2]; Spleen uptake,0.45 ± 0.23 %ID/g
same,tissue uptake at 0.5 h,in vivo [2]; Stomach uptake,0.74 ± 0.27 %ID/g
same,tissue uptake at 2 h,in vivo [2]; Stomach uptake,1.63 ± 0.27 %ID/g
same,tissue uptake at 0.5 h,in vivo [2]; Tumor uptake,3 ± 0.63 %ID/g
same,tissue uptake at 2 h,in vivo [2]; Tumor uptake,9.53 ± 2.38 %ID/g
same,half-life,[3],11.8 min
same,t1/2α,[3],0.67 min
